Measured values reported in patent publication US5736629A, “Herbicide resistant rice” (priority 1997, dated 1998).

Tests used:
[1] = test system: rice line ATCC 75295 (first resistance mechanism only); experiment: Greenhouse test of plant vigor after imazethapyr, ATCC 75295; assay type: in vivo; conditions: for Rating of rice plant vigor: 36 days after treatment at 2-3 leaf stage, 10-point scale, 0 = dead plant, 10 = no visible injury
Source text: (§1) In the greenhouse tests, pots were planted with F3 seed from crosses between the two lines. Each pot was planted with seed from a single panicle from a single plant; each pot was therefore the equivalent of a headrow. A total of 140 pots were planted in this manner, along with 40 pots of various non-resistant genotypes for comparison. Imazethapyr was applied at the 2-3 leaf stage two weeks after planting, at rates equivalent to 0.063 lb. active ingredient (a.i.) per acre, 0.125 lb. a.i./acre, and 0.313 lb. a.i./acre.
(§2) Table 2 summarizes measurements taken 36 days after spraying rice at the 2-3 leaf stage of development.

[2] = test system: rice line ATCC 97523 (second resistance mechanism only); experiment: Greenhouse test of plant vigor after imazethapyr, ATCC 97523; assay type: in vivo; conditions: for Rating of rice plant vigor: 36 days after treatment at 2-3 leaf stage, 10-point scale, 0 = dead plant, 10 = no visible injury
Source text: as §1, §2

[3] = test system: Resistant F3 Hybrid of ATCC 75295 and ATCC 97523; experiment: Greenhouse test of plant vigor after imazethapyr, resistant F3 hybrid; assay type: in vivo, rice; conditions: for Rating of rice plant vigor: 36 days after treatment at 2-3 leaf stage, 10-point scale, 0 = dead plant, 10 = no visible injury
Source text: as §1
Because the material being tested was an F3 population, with genes still segregating, individual plants had different levels of resistance. At the time this patent application is being filed, there had not been sufficient time to raise rice lines that were demonstrably homozygous for both resistance mechanisms. Raising such demonstrably homozygous lines will be routine for one of ordinary skill in the art, but will require additional time.
as §2

[4] = test system: other anther-culture progeny rows of Mercury//Lemont/Mercury rice; experiment: Open-field spray screen of anther-culture progeny rows, all other rows; assay type: in vivo
Method: This resistant line was derived by conducting anther culture on the F2 progeny of a backcross made by pollinating a rice plant of the variety "Lemont" with pollen from the rice variety "Mercury," followed by a backcross using pollen from this hybrid to pollinate a plant of the variety "Mercury." The resulting backcross is described as Mercury//Lemont/Mercury. Anthers collected from a plant resulting from this backcross were plated on callus induction medium, and the resulting calli were transferred to plant regeneration media. The procedures used were generally as described in Croughan and Chu, "Rice (Oryza saliva L.): Establishment of Callus Cultures and the Regeneration of Plants" in Bajaj (Ed.), "Biotechnology in Agriculture and Forestry," pp. 19-37 (1991). Several regenerated plants were produced and grown to maturity in a greenhouse to produce seed. Progeny seed were planted in an open field, and herbicide applications were made using a garden tractor-mounted spray rig.
A set of 4,193 progeny rows derived from this anther culture procedure were planted in an open field, and were sprayed with 4 ounces per acre of Pursuit (1.00 ounce active ingredient imazethapyr per acre) at the four-leaf stage of seedling development. […]

[5] = test system: single surviving plant derived from rice variety AS3510 treated with 0.5% EMS; experiment: Field screen of mutagenised rice seedlings, surviving plant; assay type: in vivo; conditions: imazethapyr 0.125 lb a.i. per acre (2X), 0.25% non-ionic surfactant; 3-4 leaf stage; about four weeks later
Source text: The second resistance mechanism resulted from inducing mutations in seeds of each of ten rice varieties. Mutations were induced by exposure either to gamma rays or to the chemical mutagen ethyl methanesulfonate (EMS). Ten-pound lots of seed of each variety were subjected to 25 k-rad of gamma irradiation from a Cobalt-60 source at the Nuclear Science Center, Louisiana State University, Baton Rouge, La. prior to planting. An additional ten pounds of seed of each variety was divided into three equal portions; and each portion was soaked for 16 hours in either 0.1%, 0.5%, or 1% EMS immediately prior to planting. Several hundred pounds of seed were harvested from plants grown from the seeds subjected to these mutagenic treatments.
The following spring the harvested seed was planted in strips in a field planting occupying a total of about three acres. At the 3-4 leaf stage of seedling development, herbicides were applied to screen for herbicide-resistant mutants. Half of the seedlings of each variety were sprayed with a 2X treatment of nicosulfuron, and half were sprayed with a 2X treatment of imazethapyr, in both cases by a tractor-mounted sprayer. Nicosulfuron was applied at the rate of 0.063 lb active ingredient (a.i.) per acre, and imazethapyr was applied at 0.125 lb a.i. per acre. Non-ionic surfactant (0.25%) was added to each spray solution. […]

[6] = test system: progeny of the mutant rice plant (ATCC 97523); experiment: Subsequent greenhouse and field testing of progeny of the surviving plant; assay type: in vivo; conditions: herbicides applied either pre-emergence or post-emergence
Source text: (Imazamox is sold by American Cyanamid under the trade name Raptor, and has as active ingredient (+)-5-methoxymethyl-2-(4-isopropyl-4-methyl-5-oxo-2-imidazolin-2-yl) nicotinic acid. Imazameth is sold by American Cyanamid under the trade name Cadre, and has as active ingredient (±)-2-[4,5-dihydro-4-methyl-4-(1-methyl-ethyl)-5-oxo-1H-imidazol-2-yl]- 5-methyl-3-pyridinecarboxylicacid;alternatechemicalname (±)-2-(4-isopropyl-4-methyl-5-oxo-2-imidazolin-2-yl)-5-methylnicotinic acid). Imazapyr is sold by American Cyanamid under the trade name Arsenal, and has active ingredient 2-[4,5-dihydro-4-methyl-4-(1-methylethyl)-5-oxo-1H-imidazol-2-yl]-3-pyridinecarboxylic acid) This line is resistant to herbicides applied either pre-emergence or post-emergence.

[7] = 0.313 lb. a.i./acre, listed as Imazethapyr

Compound: CCc1cnc(C2=NC(C)(C(C)C)C(=O)N2)c(C(=O)O)c1 (racemic) [imazethapyr, (±)-2-[4,5-dihydro-4-methyl-4-(1-methylethyl)-5-oxo-1H-imidazol-2-yl]-5-ethyl-3-pyridinecarboxylic acid]
- Rating of rice plant vigor ([1]; 0.063 lb. a.i./acre): 0.61 ± 0.03
- Rating of rice plant vigor ([1]; 0.125 lb. a.i./acre): 0.81 ± 0.45
- Rating of rice plant vigor ([1]; 0.313 lb. a.i./acre): about 0.6
- Rating of rice plant vigor [1, 7]: 0.55 ± 0.55
- Time to visible resumption of growth after herbicide application ([1]; ATCC 75295 plants, greenhouse test): about three weeks
- Visible injury (in words) ([1]; plants with only the first resistance mechanism, 0.313 lb a.i./acre, 36 days after treatment): substantial injury
- Rating of rice plant vigor ([2]; 0.063 lb. a.i./acre): 9.01 ± 0.59
- Rating of rice plant vigor ([2]; 0.125 lb. a.i./acre): 5.71 ± 0.93
- Rating of rice plant vigor ([2]; 0.313 lb. a.i./acre): about 4.0
- Rating of rice plant vigor [2, 7]: 4.00 ± 0.32
- Time to visible resumption of growth after herbicide application ([2]; ATCC 97523 plants, greenhouse test): about two weeks
- Visible injury (in words) ([2]; plants with only the second resistance mechanism, 0.313 lb a.i./acre, 36 days after treatment): substantial injury
- Rating of rice plant vigor ([3]; 0.063 lb. a.i./acre): 10
- Rating of rice plant vigor ([3]; 0.125 lb. a.i./acre): 10
- Rating of rice plant vigor ([3]; 0.313 lb. a.i./acre): 10
- Tolerance (in words) ([3]; F3 plants that inherited both resistance mechanisms, up to 0.313 lb. a.i. per acre): tolerance to all levels of herbicide tested
- Visible injury (in words) ([3]; plants with both resistance mechanisms, 0.313 pounds active ingredient per acre, 36 days after treatment): no visible injury
- Time to visible resumption of growth after herbicide application ([3]; resistant F3 plants, greenhouse test): about a week
- Symptoms (in words) ([4]; 4 ounces per acre Pursuit (1.00 ounce a.i. per acre), four-leaf stage, open field): injured or killed
- Symptoms (in words) ([4]; second spray 8 ounces/acre Pursuit (2.00 ounce a.i. per acre), four weeks after the initial treatment, rows that survived the initial spraying): lethal
- Symptoms of injury (in words) [5]: No symptoms of injury
- Resistance of the rice line (in words) [6]: resistance
